Results as given in PubChem BioAssay AID1963980 (Molecular Pharmacology Branch, DTP, NCI, 2024).

Tested on: 475296-252-R-J1-PDC spheroid viability
Test: Anticancer human tumor 475296-252-R-J1-PDC patient-derived rectal carcinoma cell line growth inhibition [PI3K]
Details: spheroids with HUVEC and MSC; for IC50: curve of first compound; for viability, T/C: stronger effect = lower value
Procedure, shortened: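 Tumor cells were combined with HUVEC and MSCs into spheroids, then dosed with PI3K-inhibitor combinations over half-log ranges capped near clinical Cmax or 10 microM.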
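Further: spheroids exposed to agents for seven days before readout.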

With `CCCS(=O)(=O)Nc1ccc(F)c(C(=O)c2c[nH]c3ncc(-c4ccc(Cl)cc4)cc23)c1F` + COc1c(OCCCN2CCOCC2)ccc2c3n(c(=NC(=O)c4cnc(N)nc4)nc12)CCN3 the IC50 (second compound 0.00316 µM) was over 10 µM, the IC50 (second compound 0.01 µM) was over 10 µM and the IC50 (second compound 0.0316 µM) was over 10 µM. The IC50 (second compound 0.1 µM) was over 10 µM, the IC50 (second compound 0.316 µM) was over 10 µM and the IC50 (second compound 1 µM) was over 10 µM. The viability, T/C (second compound 0.00316 µM, first compound 0.0316 µM) was 102%, the viability, T/C (second compound 0.00316 µM, first compound 0.1 µM) was 85.2% and the viability, T/C (second compound 0.00316 µM, first compound 0.316 µM) was 98.7%. The viability, T/C (second compound 0.00316 µM, first compound 1 µM) was 103%, the viability, T/C (second compound 0.00316 µM, first compound 3.16 µM) was 98.4% and the viability, T/C (second compound 0.00316 µM, first compound 10 µM) was 105%. For the same compound, the viability, T/C (second compound 0.01 µM, first compound 0.0316 µM) was 94%, the viability, T/C (second compound 0.01 µM, first compound 0.1 µM) was 99.5% and the viability, T/C (second compound 0.01 µM, first compound 0.316 µM) was 87.7%. It also gave a viability, T/C (second compound 0.01 µM, first compound 1 µM) of 86.9%, a viability, T/C (second compound 0.01 µM, first compound 3.16 µM) of 94.2% and a viability, T/C (second compound 0.01 µM, first compound 10 µM) of 100%. For the same compound, the viability, T/C (second compound 0.0316 µM, first compound 0.0316 µM) was 91.9%, the viability, T/C (second compound 0.0316 µM, first compound 0.1 µM) was 91.1% and the viability, T/C (second compound 0.0316 µM, first compound 0.316 µM) was 93.8%. For the same compound, the viability, T/C (second compound 0.0316 µM, first compound 1 µM) was 94.8%, the viability, T/C (second compound 0.0316 µM, first compound 3.16 µM) was 83.2% and the viability, T/C (second compound 0.0316 µM, first compound 10 µM) was 87.4%. It also gave a viability, T/C (second compound 0.1 µM, first compound 0.0316 µM) of 83%, a viability, T/C (second compound 0.1 µM, first compound 0.1 µM) of 80% and a viability, T/C (second compound 0.1 µM, first compound 0.316 µM) of 84.5%. For the same compound, the viability, T/C (second compound 0.1 µM, first compound 1 µM) was 78.8%, the viability, T/C (second compound 0.1 µM, first compound 3.16 µM) was 66.4% and the viability, T/C (second compound 0.1 µM, first compound 10 µM) was 71.3%. For the same compound, the viability, T/C (second compound 0.316 µM, first compound 0.0316 µM) was 67.6%, the viability, T/C (second compound 0.316 µM, first compound 0.1 µM) was 69.8% and the viability, T/C (second compound 0.316 µM, first compound 0.316 µM) was 64.9%. For the same compound, the viability, T/C (second compound 0.316 µM, first compound 1 µM) was 70.2%, the viability, T/C (second compound 0.316 µM, first compound 3.16 µM) was 57.5% and the viability, T/C (second compound 0.316 µM, first compound 10 µM) was 64.6%. For the same compound, the viability, T/C (second compound 1 µM, first compound 0.0316 µM) was 62.5%, the viability, T/C (second compound 1 µM, first compound 0.1 µM) was 64.1% and the viability, T/C (second compound 1 µM, first compound 0.316 µM) was 79.8%. The viability, T/C (second compound 1 µM, first compound 1 µM) was 57.9%, the viability, T/C (second compound 1 µM, first compound 3.16 µM) was 73.3% and the viability, T/C (second compound 1 µM, first compound 10 µM) was 58.1%.
